Data from patent US20200339509A1, “Non-Coordinating Anion Type Indolinium Activators in Aliphatic and Alicyclic Hydrocarbon Solvents” (ExxonMobil Chemical Patents Inc., priority 2019, published 2020).
Values joined by “and” are separate entries in the source; they are usually repeats but may differ in a detail not shown here. Identical values can stand only once.

Tests used:
[1] = Solubility study of the activators (saturated solution in aliphatic/alicyclic solvent); assay type: physicochemical; settings: 25° C., concentration of saturated solution; for Solubility limit in MeCy: MeCy (methylcyclohexane)
Description: The solubility was determined using a saturated solution of the activator prepared by slowly adding the solvent to a pre-weighed amount of the activator. The final volume was determined as the minimum amount of solvent required to convert the heterogenous mixture into a homogeneous solution. The concentration of the saturated solution is presented in millimoles of activator per liter of solution (mM). Alternatively, a mixture of the activator was prepared by adding the solvent to an excess amount of activator. The resulting slurry was separated from the undissolved solids by decanting the mixture into a tared vial. Solvent was then added dropwise until the mixture became a homogeneous solution. The mass of the final solution was measured and then the solvent was evaporated to dryness to obtain the mass of the activator. The concentration of the saturated solution is presented in millimoles of activator per liter of solution (mM).

[2] = Propylene homopolymerization in parallel pressure reactor with the indicated activator; settings: propylene polymerization; 30 nmol catalyst MCN-1, 1.1 equivalents activator, 100° C., 150 psi propylene
Description: Solutions of the metal complexes and activators were prepared in a drybox using toluene or methylcyclohexane. Concentrations were typically 0.2 mmol/L. Tri-n-octylaluminum (TNOAL, neat, AkzoNobel) was used as a scavenger as indicated. Concentration of the TNOAL solution in toluene ranged from 0.5 to 2.0 mmol/L.
Polymerizations were carried out in a parallel pressure reactor according to common laboratory techniques, as generally described in U.S. Pat. Nos. 6,306,658; 6,455,316; 6,489,168; WO 00/09255; consistent with the procedures described by Murphy, V. et al. (2003) “A Fully Integrated High-Throughput Screening Methodology for the Discovery of New Polyolefin Catalysts: Discovery of a New Class of High Temperature Single-Site Group (IV) Copolymerization Catalysts,” J. Am. Chem. Soc., v. 125, pp. 4306-4317, each of which is fully incorporated herein by reference. The experiments were conducted in an inert atmosphere (N2) drybox using autoclaves equipped with an external heater for temperature control, glass inserts (internal volume of reactor=23.5 mL for C2 and C2/C8; 22.5 mL for C3 runs), septum inlets, regulated supply of nitrogen, ethylene and propylene, and equipped with disposable PEEK mechanical stirrers (800 RPM). The autoclaves were prepared by purging with dry nitrogen at 110° C. or 115° C. for 5 hours and then at 25° C. for 5 hours. Although the specific quantities, temperatures, solvents, reactants, reactant ratios, pressures, and other variables are frequently changed from one polymerization run to the next, the following describes a typical polymerization performed in a parallel pressure reactor. […]
The catalyst and activator solutions for the comparative data were all prepared in toluene. […] The resultant polymer was analyzed by Rapid GPC (see below) to determine the molecular weight, by FT-IR (see below) to determine percent octene incorporation, and by DSC (see below) to determine melting point (Tm).
Equivalence is determined based on the mole equivalents relative to the moles of the transition metal in the catalyst complex. […]

For C[NH+]1CCc2ccccc21.Fc1c(F)c(F)c([B-](c2c(F)c(F)c(F)c(F)c2F)(c2c(F)c(F)c(F)c(F)c2F)c2c(F)c(F)c(F)c(F)c2F)c(F)c1F [MIH-BF20, 1-methylindolinium tetrakis(pentafluorophenyl) borate], the “Solubility limit in MeCy” value [1] was 5300 µM, the “Solubility limit in i-hexane” value [1] was under 100 µM and the activity [2] was 7 kg/mmol/h.
For CCCCCCCCCCC1C[NH+](C)c2ccccc21.Fc1c(F)c(F)c2c(F)c([B-](c3c(F)c(F)c4c(F)c(F)c(F)c(F)c4c3F)(c3c(F)c(F)c4c(F)c(F)c(F)c(F)c4c3F)c3c(F)c(F)c4c(F)c(F)c(F)c(F)c4c3F)c(F)c(F)c2c1F [MDIH-BF28, 3-decyl-1-methylindolin-1-ium BF-28], the “Solubility limit in MeCy” value [1] was 10100 µM and the “Solubility limit in i-hexane” value [1] was 1000 µM.
With C[NH+](C)c1ccccc1.Fc1c(F)c(F)c([B-](c2c(F)c(F)c(F)c(F)c2F)(c2c(F)c(F)c(F)c(F)c2F)c2c(F)c(F)c(F)c(F)c2F)c(F)c1F [DMAH-BF20, N,N-Dimethylanilinium tetrakis(pentafluorophenyl) borate, reference compound] the “Solubility limit in MeCy” value [1] was under 100 µM and the “Solubility limit in i-hexane” value [1] was under 100 µM.
With “N,N-dimethyl anilinium tetrakis(heptafluoronaphthalen-2-yl)borate [DMAH-BF28, reference compound]” the activity [2] was 126 kg/mmol/h and 182 kg/mmol/h and 196 kg/mmol/h and 164 kg/mmol/h.
In the case of “1-methylindolinium tetrakis(heptafluoronaphthalen-2-yl)borate [MIH-BF28]”, the activity [2] is reported as 64 kg/mmol/h and 39 kg/mmol/h and 46 kg/mmol/h.
